The test system of data set [1] is Pseudomonas aeruginosa (ATCC 15442). Nature of the data set: Biocidal activity against simulated biofilm systems (alginate beads). Type of data set: cell-based. An excerpt:
A biofilm simulation system, alginate beads, developed by the Biofilm Bozeman Institute Montana (Grobe, K. J, Zahller, J and Stewart P. S., 2002 in “Role of dose concentration in biocide efficacy against Pseudomonas aeruginosa Biofilms”, J. Industrial Microbiology & Biotechnology, vol. 29, pp 10-15), was used in order to evaluate the efficacy of bromine/urea against biofilm.
The biofilm simulation was created by entrapping bacteria in alginate gel beads. A plate of R2A agar was streaked with Pseudomonas aeruginosa (ATCC 15442) and incubated at 35° C. overnight. Buffer phosphate at pH 7.2 was used to scrap off the bacteria from the agar plate and to create a suspension. The bacterial suspension was mixed with an equal volume of an aqueous 4% sodium alginate solution, to make a final 2% alginate solution. The alginate and bacterial slurry were placed in a 50 ml syringe attached to a gauge needle (22), connected to a compressed air tank, allowing the syringe be pressurized. At 20 psig pressure a stream of small drops was forced out and dropped into a stirred solution of 50 mM CaCl2. The Ca^+2 cross linked the alginate, and semi solid beads with entrapped bacterial cells were formed. The beads were allowed to stir in the CaCl2 solution for about 20 minutes, and then rinsed in a dilute 5 mM CaCl2 solution. Several flasks containing 100 beads each were incubated overnight at 35° C. on a rotating shaker in a buffer solution (at pH 7) with 5 mM addition of CaCl2 to maintain the beads structure. The resulting beads diameter is about 2 mm
At the beginning of the experiment, the supernatant of the beads buffer suspension containing 5 mM CaCl2 was decanted and replaced by the 100 ml biocide solution with the required concentration. Chlorourea compositions prepared as in Example 1, and bromourera composition prepared as in Example 2, were used for the biocidal experiments. Urea-bromine compositions prepared by dissolving urea 15.02 g (250.3 mmol, 15% concentration) and 1.17 g Br2 (7.32 mmol, 1.17% concentration) in 84 g H2O (34.2:1 urea:Br2 molar ratio). After different interval contact times, 10 beads were removed and placed in a 5 g/l sodium thiosulfate solution containing 50 mM sodium citrate. The sodium citrate was used to dissolve the alginate gel and release the bacteria into the solution. The neutralizer-citrate solution was placed in the refrigerator for 2 hours, than diluted and placed on R2A agar plates using pour plate technique. The plates were incubated at 35° C. for 24-48 hours and counted. The efficacy and toxicity of the neutralizer were checked as well as a control experiment without biocide addition. Four concentrations (0.5, 1, 2.5 and 5 ppm) were tested at four different contact times (5, 15, 30, and 60 min). Table 1-2 describe the surviving colony forming units (CFU) of the bacteria after different biocides treatment at different contact times.

The nature of data set [2]: Stability of the prepared halourea solution. Type of data set: physicochemical. Particulars: aqueous chlorourea solution, 1.27% as total Cl2. The procedure:
In a 250 ml round bottom flask equipped with a magnetic stir bar, a dropping funnel and a thermocouple, 46.04 g urea (Mw 60, 767 mmol) was dissolved in 35.3 g H2O, followed by the addition (upon cooling, exothermic) of 5.37 g of 32% HCl (Mw 36.64, 46.9 mmol). To the solution was added upon cooling 13.3 g of an aq. 10.7% NaOCl solution (wt % as active Cl2, 20 mmol) during 14 min. A slightly yellow solution was obtained retaining 1.27% Cl2 (wt % as total Cl2, iodometric titration, in relation to 1.5% wt % theoretical as Cl2). […] The solution was stable for at least 1 week.
In a 250 ml round bottom flask equipped with a magnetic stir bar, a dropping funnel and a thermocouple, 46 g urea (Mw 60, 767 mmol) was dissolved in 31.8 g H2O, followed by the addition (upon cooling, exothermic) of 8.96 g of 48% HBr (Mw 80.92, 53.15 mmol). To the solution was added upon cooling 13.4 g of an aq. 10.7% NaOCl solution (wt %, as total Cl2, 20.2 mmol) during 10 min. An orange solution was obtained retaining 1% Cl2 (wt %, as total Cl2, iodometric titration, in relation to 1.43% theoretical). […] The solution was stable for at least 24 hrs.

Where [3] appears, read: biocide 0.5 ppm as Cl2, contact time 0 (min).
Setting [4] is: biocide 0.5 ppm as Cl2, contact time 5 min.
[5] abbreviates: biocide 0.5 ppm as Cl2, contact time 15 min.
Setting [6] is: biocide 0.5 ppm as Cl2, contact time 30 min.
The mark [7] stands for this setting: biocide 0.5 ppm as Cl2, contact time 60 min.
Setting [8] is: biocide 1 ppm as Cl2, contact time 0 (min).
The mark [9] stands for this setting: biocide 1 ppm as Cl2, contact time 5 min.
The mark [10] stands for this setting: biocide 1 ppm as Cl2, contact time 15 min.
[11] abbreviates: biocide 1 ppm as Cl2, contact time 30 min.
The mark [12] stands for this setting: biocide 1 ppm as Cl2, contact time 60 min.
Where [13] appears, read: biocide 2.5 ppm as Cl2, contact time 0 (min).
[14] abbreviates: biocide 2.5 ppm as Cl2, contact time 5 min.
Setting [15] is: biocide 2.5 ppm as Cl2, contact time 15 min.
Setting [16] is: biocide 2.5 ppm as Cl2, contact time 30 min.
Setting [17] is: biocide 2.5 ppm as Cl2, contact time 60 min.
Setting [18] is: biocide 5 ppm as Cl2, contact time 0 (min).
[19] abbreviates: biocide 5 ppm as Cl2, contact time 5 min.
Setting [20] is: biocide 5 ppm as Cl2, contact time 15 min.
The mark [21] stands for this setting: biocide 5 ppm as Cl2, contact time 30 min.
The mark [22] stands for this setting: biocide 5 ppm as Cl2, contact time 60 min.

With `NC(=O)NBr` [bromourea], the “survival of bacteria (CFU)” value in data set [1] (setting [3]) is 9.22 × 10^6 CFU; in data set [1] (setting [4]), 8.10 × 10^6 CFU; in data set [1] (setting [5]), 8.00 × 10^6 CFU; in data set [1] (setting [6]), 3.50 × 10^6 CFU; in data set [1] (setting [7]), 7.37 × 10^5 CFU; in data set [1] (setting [8]) it was 9.22 × 10^6 CFU. Also, the “survival of bacteria (CFU)” value in data set [1] (setting [9]) is reported as 9.30 × 10^6 CFU; in data set [1] (setting [10]), 1.73 × 10^6 CFU; in data set [1] (setting [11]) it was 1.00 × 10^4 CFU; in data set [1] (setting [12]) it was less than 1.00 CFU; in data set [1] (setting [13]) it was 9.22 × 10^6 CFU; in data set [1] (setting [14]), 2.72 × 10^6 CFU. Moreover, the “survival of bacteria (CFU)” value in data set [1] (setting [15]) was 6.08 × 10^2 CFU; in data set [1] (setting [16]), 5.00 × 10^1 CFU; in data set [1] (setting [17]), less than 1.00 CFU; in data set [1] (setting [18]), 9.22 × 10^6 CFU; in data set [1] (setting [19]) it was 3.00 × 10^5 CFU; in data set [1] (setting [20]), less than 1.00 CFU. The “survival of bacteria (CFU)” value in data set [1] (setting [21]) and in data set [1] (setting [22]) was less than 1.00 CFU in each case.

As to `NC(=O)NCl` [chlorourea], the “survival of bacteria (CFU)” value in data set [1] (setting [3]) is 2.28 × 10^7 CFU; in data set [1] (setting [4]) it was 2.80 × 10^7 CFU; in data set [1] (setting [5]) it was 2.43 × 10^7 CFU; in data set [1] (setting [6]) it was 2.28 × 10^7 CFU; in data set [1] (setting [7]) it was 1.00 × 10^7 CFU; in data set [1] (setting [8]), 2.28 × 10^7 CFU. The “survival of bacteria (CFU)” value was 1.89 × 10^7 CFU in data set [1] (setting [9]); 1.61 × 10^7 CFU in data set [1] (setting [10]); 1.66 × 10^7 CFU in data set [1] (setting [11]); 6.40 × 10^5 CFU in data set [1] (setting [12]); 2.28 × 10^7 CFU in data set [1] (setting [13]); 2.20 × 10^7 CFU in data set [1] (setting [14]). Also, the “survival of bacteria (CFU)” value is 1.42 × 10^7 CFU in data set [1] (setting [15]); 3.56 × 10^5 CFU in data set [1] (setting [16]); 1.58 × 10^3 CFU in data set [1] (setting [17]); 2.28 × 10^7 CFU in data set [1] (setting [18]); 2.16 × 10^7 CFU in data set [1] (setting [19]); 1.00 × 10^6 CFU in data set [1] (setting [20]). Further, the “survival of bacteria (CFU)” value in data set [1] (setting [21]) was 3.25 × 10^3 CFU; in data set [1] (setting [22]), less than 1.00 CFU. Besides, the “time for which the solution was stable” value in data set [2] was “at least 1 week”.

(Values after US9133109B2, “Method for preparing bromourea” (Bromine Compounds Ltd., priority 2010, dated 2015).)
